In ChEMBL document CHEMBL5665443, “Enzyme Inhibitor Single Concentration assay results for EUbOPEN Chemogenomics Library” (2024):

Experiments:
Details in all cases: Hit No
[1] = molecular target: Uracil-DNA glycosylase (Homo sapiens) (UniProt P13051);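 also: UNG excision on a quenched double-stranded DNA oligo probe, with APE1 added for strand incision and turnover, read as fluorescence at 594 nm as strands separate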
Description: Inhibition of UNG by quantifying inhibition of UNG-mediated cleavage and dissociation of quenched duplex DNA oligonucleotides, measured as fluorescence at 594 nm. To generate a functional strand incision and increase turn-over this assay is coupled to APE1.

[2] = molecular target: G/T mismatch-specific thymine DNA glycosylase (Homo sapiens) (UniProt Q13569);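 also: human TDG cleavage of quenched duplex DNA oligonucleotides coupled to APE1, strand release read as fluorescence at 594 nm, inhibition of TDG activity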
Description: Inhibition of TDG by quantifying inhibition of TDG-mediated cleavage and dissociation of quenched duplex DNA oligonucleotides, measured as fluorescence at 594 nm. To generate a functional strand incision and increase turn-over this assay is coupled to APE1.

[3] = molecular target: T1, Endonuclease III-like protein 1 (Homo sapiens) (UniProt P78549);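 also: enzyme assay tracking NTHL1 cutting and release of a quenched double-stranded DNA oligo substrate, read as fluorescence at 594 nm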
T1 sequence (whole entry): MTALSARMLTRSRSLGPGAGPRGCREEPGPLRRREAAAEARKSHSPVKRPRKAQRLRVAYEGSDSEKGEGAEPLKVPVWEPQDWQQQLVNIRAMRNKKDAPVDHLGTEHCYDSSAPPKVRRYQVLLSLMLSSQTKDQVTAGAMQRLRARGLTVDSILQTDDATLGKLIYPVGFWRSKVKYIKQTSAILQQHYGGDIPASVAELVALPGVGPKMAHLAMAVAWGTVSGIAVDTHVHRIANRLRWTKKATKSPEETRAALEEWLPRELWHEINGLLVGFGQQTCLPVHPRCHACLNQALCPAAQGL
Description: Inhibition of NTHL1 by quantifying inhibition of NTHL1-mediated cleavage and dissociation of quenched duplex DNA oligonucleotides, measured as fluorescence at 594 nm.

[4] = molecular target: Methyl-CpG-binding domain protein 4 (Homo sapiens) (UniProt O95243);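 also: MBD4 activity read as fluorescence at 594 nm from cleavage and release of a quenched duplex DNA oligonucleotide, with APE1 coupled to incise the strand and raise turnover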
Description: Inhibition of MBD4 by quantifying inhibition of MBD4-mediated cleavage and dissociation of quenched duplex DNA oligonucleotides, measured as fluorescence at 594 nm. To generate a functional strand incision and increase turn-over this assay is coupled to APE1.

[5] = molecular target: T2, Single-strand selective monofunctional uracil DNA glycosylase (Homo sapiens) (UniProt Q53HV7);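 also: enzymatic SMUG1 assay coupled with APE1, reading fluorescence at 594 nm released when a quenched double-stranded DNA oligonucleotide substrate is cleaved and separated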
T2 sequence (whole entry): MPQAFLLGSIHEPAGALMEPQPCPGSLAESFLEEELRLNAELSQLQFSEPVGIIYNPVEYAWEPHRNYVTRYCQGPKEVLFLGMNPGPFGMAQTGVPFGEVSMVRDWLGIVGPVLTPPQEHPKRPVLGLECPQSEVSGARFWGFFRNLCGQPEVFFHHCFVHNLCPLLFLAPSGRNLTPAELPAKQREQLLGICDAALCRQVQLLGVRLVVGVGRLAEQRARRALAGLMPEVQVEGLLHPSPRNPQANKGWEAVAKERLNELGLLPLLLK
Description: Inhibition of SMUG1 by quantifying inhibition of SMUG1-mediated cleavage and dissociation of quenched duplex DNA oligonucleotides, measured as fluorescence at 594 nm. To generate a functional strand incision and increase turn-over this assay is coupled to APE1.

[6] = molecular target: T3, Adenine DNA glycosylase (Homo sapiens) (UniProt Q9UIF7);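 also: human MUTYH activity read as 594 nm fluorescence from cleavage and release of a quenched DNA duplex, coupled with APE1 for strand incision, lower signal meaning inhibition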
T3 sequence (whole entry): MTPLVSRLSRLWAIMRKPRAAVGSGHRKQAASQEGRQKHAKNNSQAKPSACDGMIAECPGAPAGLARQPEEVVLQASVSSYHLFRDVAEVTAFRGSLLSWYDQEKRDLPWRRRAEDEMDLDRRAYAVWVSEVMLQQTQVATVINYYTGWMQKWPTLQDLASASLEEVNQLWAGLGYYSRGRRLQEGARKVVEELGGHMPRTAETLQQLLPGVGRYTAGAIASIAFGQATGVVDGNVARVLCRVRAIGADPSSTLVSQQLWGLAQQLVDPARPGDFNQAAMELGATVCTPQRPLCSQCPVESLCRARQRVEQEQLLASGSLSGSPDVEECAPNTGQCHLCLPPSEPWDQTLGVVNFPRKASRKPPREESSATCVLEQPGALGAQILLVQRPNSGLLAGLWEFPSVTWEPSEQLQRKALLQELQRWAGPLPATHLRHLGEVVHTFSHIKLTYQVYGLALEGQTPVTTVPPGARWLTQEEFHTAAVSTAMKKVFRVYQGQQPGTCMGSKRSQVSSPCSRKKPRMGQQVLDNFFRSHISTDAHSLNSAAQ
Description: Inhibition of MUTYH by quantifying inhibition of MUTYH-mediated cleavage and dissociation of quenched duplex DNA oligonucleotides, measured as fluorescence at 594 nm. To generate a functional strand incision and increase turn-over this assay is coupled to APE1.

[7] = molecular target: Endonuclease 8-like 1 (Homo sapiens) (UniProt Q96FI4);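 also: fluorescence at 594 nm from quenched duplex DNA oligonucleotides released by NEIL1 cleavage and strand separation, reported as reduction of this enzyme activity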
Description: Inhibition of NEIL1 by quantifying inhibition of NEIL1-mediated cleavage and dissociation of quenched duplex DNA oligonucleotides, measured as fluorescence at 594 nm.

[8] = molecular target: N-glycosylase/DNA lyase (Homo sapiens) (UniProt O15527);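 also: OGG1 cleavage of a quenched duplex DNA oligonucleotide, coupled to APE1 for strand incision, read as fluorescence at 594 nm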
Description: Inhibition of OGG1 by quantifying inhibition of OGG1-mediated cleavage and dissociation of quenched duplex DNA oligonucleotides, measured as fluorescence at 594 nm. To generate a functional strand incision and increase turn-over this assay is coupled to APE1.

[9] = molecular target: T4, Endonuclease 8-like 2 (Homo sapiens) (UniProt Q969S2);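 also: fluorescence at 594 nm reports NEIL2 cutting and release of a quenched double-stranded DNA oligo substrate, reduced signal read as inhibition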
T4 sequence (whole entry): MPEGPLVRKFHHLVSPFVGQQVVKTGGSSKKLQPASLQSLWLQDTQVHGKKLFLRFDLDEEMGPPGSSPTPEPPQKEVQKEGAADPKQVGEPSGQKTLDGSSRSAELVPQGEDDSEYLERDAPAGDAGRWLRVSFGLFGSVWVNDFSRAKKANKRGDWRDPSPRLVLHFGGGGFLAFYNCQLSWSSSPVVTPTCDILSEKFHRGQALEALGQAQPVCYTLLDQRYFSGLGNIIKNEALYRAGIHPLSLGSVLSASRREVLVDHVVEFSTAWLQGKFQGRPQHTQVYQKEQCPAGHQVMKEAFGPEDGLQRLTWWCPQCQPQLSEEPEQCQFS
Description: Inhibition of NEIL2 by quantifying inhibition of NEIL2-mediated cleavage and dissociation of quenched duplex DNA oligonucleotides, measured as fluorescence at 594 nm.

Sequence of N-glycosylase/DNA lyase (Homo sapiens) (O15527 whole entry): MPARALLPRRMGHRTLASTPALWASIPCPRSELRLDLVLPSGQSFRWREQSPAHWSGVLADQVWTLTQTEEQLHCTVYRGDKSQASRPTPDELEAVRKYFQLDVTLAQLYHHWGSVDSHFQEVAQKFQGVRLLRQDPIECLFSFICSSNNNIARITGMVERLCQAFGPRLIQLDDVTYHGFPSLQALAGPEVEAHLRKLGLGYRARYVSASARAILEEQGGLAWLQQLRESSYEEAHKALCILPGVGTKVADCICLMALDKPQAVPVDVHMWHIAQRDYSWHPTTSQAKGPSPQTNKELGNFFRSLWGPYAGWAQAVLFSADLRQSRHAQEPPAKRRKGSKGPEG
Sequence of G/T mismatch-specific thymine DNA glycosylase (Homo sapiens) (Q13569 whole entry): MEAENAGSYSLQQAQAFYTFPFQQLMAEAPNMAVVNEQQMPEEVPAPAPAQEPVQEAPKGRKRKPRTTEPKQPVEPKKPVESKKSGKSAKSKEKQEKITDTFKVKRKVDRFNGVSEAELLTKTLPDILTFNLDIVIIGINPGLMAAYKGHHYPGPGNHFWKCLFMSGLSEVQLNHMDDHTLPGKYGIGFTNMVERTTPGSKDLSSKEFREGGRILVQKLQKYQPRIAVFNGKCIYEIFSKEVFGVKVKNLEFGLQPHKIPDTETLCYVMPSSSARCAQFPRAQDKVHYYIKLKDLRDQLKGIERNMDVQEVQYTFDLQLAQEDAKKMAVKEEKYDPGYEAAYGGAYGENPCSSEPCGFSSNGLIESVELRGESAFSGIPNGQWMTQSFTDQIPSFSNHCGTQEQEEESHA
Sequence of Methyl-CpG-binding domain protein 4 (Homo sapiens) (O95243 whole entry, the tested form may be a part): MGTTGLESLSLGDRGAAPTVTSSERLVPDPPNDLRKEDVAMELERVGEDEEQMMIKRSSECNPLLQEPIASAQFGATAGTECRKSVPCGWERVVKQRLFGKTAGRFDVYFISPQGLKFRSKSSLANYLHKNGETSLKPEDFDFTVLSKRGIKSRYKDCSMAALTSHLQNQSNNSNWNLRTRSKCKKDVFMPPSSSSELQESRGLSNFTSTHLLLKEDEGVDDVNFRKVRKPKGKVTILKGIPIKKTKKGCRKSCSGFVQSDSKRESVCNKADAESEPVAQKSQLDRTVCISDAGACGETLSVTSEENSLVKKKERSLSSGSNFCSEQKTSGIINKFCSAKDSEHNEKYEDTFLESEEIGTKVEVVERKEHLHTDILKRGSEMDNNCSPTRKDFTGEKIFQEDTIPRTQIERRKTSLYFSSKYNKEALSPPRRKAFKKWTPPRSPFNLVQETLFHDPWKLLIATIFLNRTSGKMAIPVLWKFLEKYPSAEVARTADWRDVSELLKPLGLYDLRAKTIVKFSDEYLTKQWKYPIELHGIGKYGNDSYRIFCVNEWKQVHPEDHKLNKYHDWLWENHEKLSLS
Sequence of Uracil-DNA glycosylase (Homo sapiens) (P13051 whole entry): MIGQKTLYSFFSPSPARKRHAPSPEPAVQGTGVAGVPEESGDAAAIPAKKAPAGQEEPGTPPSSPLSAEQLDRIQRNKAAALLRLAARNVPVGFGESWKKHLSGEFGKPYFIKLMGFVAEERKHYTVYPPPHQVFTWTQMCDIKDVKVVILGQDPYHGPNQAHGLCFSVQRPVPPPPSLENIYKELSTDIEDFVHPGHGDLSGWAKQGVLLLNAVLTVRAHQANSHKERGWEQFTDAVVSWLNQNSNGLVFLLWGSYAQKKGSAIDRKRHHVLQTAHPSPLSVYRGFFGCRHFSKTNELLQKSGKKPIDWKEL
Sequence of Endonuclease 8-like 1 (Homo sapiens) (Q96FI4 whole entry): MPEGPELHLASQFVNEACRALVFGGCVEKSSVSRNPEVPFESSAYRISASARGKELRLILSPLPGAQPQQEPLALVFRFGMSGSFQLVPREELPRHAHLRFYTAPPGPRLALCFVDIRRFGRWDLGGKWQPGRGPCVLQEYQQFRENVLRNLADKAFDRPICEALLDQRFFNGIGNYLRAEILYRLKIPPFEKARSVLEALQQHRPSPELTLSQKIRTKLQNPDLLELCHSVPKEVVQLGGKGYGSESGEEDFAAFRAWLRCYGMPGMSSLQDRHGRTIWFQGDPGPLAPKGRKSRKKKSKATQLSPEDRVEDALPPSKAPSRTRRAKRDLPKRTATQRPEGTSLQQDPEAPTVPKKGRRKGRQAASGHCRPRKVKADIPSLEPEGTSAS

| inhibition ([1]; Compound Concentration 10.0 uM) | inhibition ([2]; Compound Concentration 10.0 uM) | inhibition ([3]; Compound Concentration 10.0 uM) | inhibition ([4]; Compound Concentration 10.0 uM) | inhibition ([5]; Compound Concentration 10.0 uM) | inhibition ([6]; Compound Concentration 10.0 uM) | inhibition ([7]; Compound Concentration 10.0 uM) | inhibition ([8]; Compound Concentration 10.0 uM) | inhibition ([9]; Compound Concentration 10.0 uM) | inhibition ([1]; Compound Concentration 1.0 uM) | inhibition ([2]; Compound Concentration 1.0 uM) | inhibition ([3]; Compound Concentration 1.0 uM) | inhibition ([4]; Compound Concentration 1.0 uM) | inhibition ([5]; Compound Concentration 1.0 uM) | inhibition ([6]; Compound Concentration 1.0 uM) | inhibition ([7]; Compound Concentration 1.0 uM) | inhibition ([8]; Compound Concentration 1.0 uM) | inhibition ([9]; Compound Concentration 1.0 uM) | SMILES |
| --- | --- | --- | --- | --- | --- | --- | --- | --- | --- | --- | --- | --- | --- | --- | --- | --- | --- | --- |
| 7.52% | 61.5% | -0.379% | 30.1% | 17.5% | 9.15% | -5.75% | 7.7% | -4.68% | – | – | – | – | – | – | – | – | – | Cc1nc(C2CCN(C(=O)c3ccc(OC(F)(F)F)cc3N)CC2)c2ncc(N3CCN(C)CC3)cc2n1 |
| -0.617% | 75.3% | -8.52% | 57% | 0.349% | -4.04% | -6.8% | 10.5% | -1.25% | – | – | – | – | – | – | – | – | – | C=C1/C(=C\C=C2/CCC[C@]3(C)[C@@H]([C@H](C)CCCC(C)(C)O)CC[C@@H]23)C[C@@H](O)C[C@@H]1O |
| 7.32% | 57.9% | 10.6% | 2.7% | 18.4% | 25.7% | 4.89% | -7.95% | 12.6% | – | – | – | – | – | – | – | – | – | C[C@]1(O)C[C@@H](c2nc(-c3ccc4ccc(-c5ccccc5)nc4c3)c3c(N)nccn32)C1 |
| 4.47% | 97.2% | -3.26% | 57.5% | 20.2% | 1.43% | -7.26% | 10.8% | 5.38% | – | – | – | – | – | – | – | – | – | O=c1[nH]c2ccccc2n1CCCN1CCN(C(c2ccccc2)c2ccccc2)CC1 |
| 5.13% | 98.5% | -1.95% | 69.4% | 18.3% | 7% | -7.41% | 9.77% | -1.25% | – | – | – | – | – | – | – | – | – | CCc1ccc(N(CC(C)C)S(=O)(=O)c2ccc(OCC3CCOCC3)c(CO)c2)cc1 |
| 8.79% | 39.4% | 0.775% | 32.4% | 11.5% | -4.85% | -0.672% | -9.94% | 4.92% | – | – | – | – | – | – | – | – | – | O=C1c2ccc(Nc3ccc(F)cc3F)cc2CCc2ccc(OC[C@H](O)CO)cc21 |
| 2.85% | 99.3% | 5.29% | 56.2% | 19.8% | 0.387% | -0.442% | 9.38% | 0.0213% | – | – | – | – | – | – | – | – | – | Cc1cn([C@@H](C)CC#N)c(=O)c2cc(Cn3nc(C(F)F)cc3Cl)nn12 |
| -3.92% | 2.89% | -9.34% | 0.258% | -0.692% | -0.521% | -4.29% | -9.37% | -9.52% | – | – | – | – | – | – | – | – | – | N#Cc1cc(F)cc(-c2nc(-c3ccc(F)cn3)no2)c1 |
| -1.45% | -2.2% | 13.8% | -8.27% | 17.8% | 4.25% | 7.86% | -7.14% | -3.66% | – | – | – | – | – | – | – | – | – | CC(C)C[C@H](NC(=O)c1cc2ccccc2s1)C(=O)N1CCN(C(=O)[C@H](CO)NS(=O)(=O)c2ccc(Cl)cc2Cl)CC1 |
| – | – | – | – | – | – | – | – | – | 0.688% | 35.8% | -3.26% | 55.1% | 4.46% | -1.09% | -9.83% | 5% | -1.25% | CC(C)CC(=O)N1CCc2nc(-c3ccc(Br)cc3)nc(N(C)Cc3ccccc3)c2C1 |
| 7.59% | 55.2% | -2.6% | 75% | 23% | 15.4% | -3.17% | 16.2% | -2.53% | – | – | – | – | – | – | – | – | – | c1ccc(C2CCN(c3cnc4c(N5CCOCC5)nccn34)CC2)cc1 |
| -2.65% | 54.4% | -1.29% | 68.2% | 29.1% | 0.715% | 7.74% | 50.6% | -1.25% | – | – | – | – | – | – | – | – | – | Cc1ccccc1Oc1cc(-n2c(=O)cc(C(F)(F)F)[nH]c2=O)c2ccccc2c1Cl |
| 3.71% | 50.8% | -1.31% | -6.46% | 20.9% | 10.5% | 0.798% | 12% | 2.93% | – | – | – | – | – | – | – | – | – | Cc1cc([C@@H](C)Nc2ccccc2C(=O)O)c2nc(N3CCOCC3)cc(=O)n2c1 |
| – | – | – | – | – | – | – | – | – | -3.82% | 51.7% | 9.15% | 24% | -0.754% | 13.2% | -9.77% | 1.04% | 15.6% | COc1ncc(-c2ccc3nccc(-c4ccnnc4)c3c2)cc1NS(=O)(=O)c1ccc(F)cc1F |
| – | – | – | – | – | – | – | – | – | 3.95% | 59% | 6.36% | -7.49% | 24.3% | 15.3% | -7.39% | 10.6% | -7.57% | CCC(=O)N1CCN(c2ccc(-n3c(=O)ccc4cnc5ccc(-c6cnc7ccccc7c6)cc5c43)cc2C(F)(F)F)CC1 |
| 5.72% | 46.7% | -1.95% | 66.8% | 27.6% | 4.92% | -3.02% | 18.3% | 3.08% | – | – | – | – | – | – | – | – | – | CC(C)OC(=O)C1=CN(C(=O)c2ccc(F)c(F)c2)CC(C)(C)c2c1[nH]c1ccccc21 |
| 4.65% | 46% | -7.2% | 63.4% | 23.9% | -4.04% | -6.35% | 44.6% | -4.32% | – | – | – | – | – | – | – | – | – | CCCCN(CCCC)C(=O)CN1C[C@@H](c2cc(OC)c3c(c2)OCO3)[C@H](C(=O)O)[C@H]1CC(C)(C)CCC |
| -1.52% | 47.5% | -7.2% | 49.5% | 5.8% | -4.47% | -2.26% | 9.87% | -2.53% | – | – | – | – | – | – | – | – | – | CC1(C)C(=O)C(C)(C)c2cc(C(=O)Nc3ccc(C(=O)O)cc3)ccc21 |
| 6.75% | 47.5% | -3.26% | 79.3% | 17.6% | 3.45% | -9.68% | 9.87% | 0.531% | – | – | – | – | – | – | – | – | – | COCCc1ccc(-c2c(C)nc3c(N4CCOCC4)ccnn23)cn1 |
| -0.0293% | 50.8% | 7.26% | 53.3% | 5.92% | 14% | -7.26% | 28.8% | 7.67% | – | – | – | – | – | – | – | – | – | CC(C)c1cc(Oc2c(Cl)cc(-n3nc(C#N)c(=O)[nH]c3=O)cc2Cl)n[nH]c1=O |
| 2.48% | 45.3% | 0.755% | 25.9% | 15.8% | -1.18% | -5.19% | 0.815% | 3.79% | – | – | – | – | – | – | – | – | – | CC(C)(O)[C@H](F)CN1Cc2cc(NC(=O)c3cnn4cccnc34)c(N3CCOCC3)cc2C1=O |
| 4.52% | 99.3% | 10.6% | 61.7% | 17.7% | 11.9% | -9.38% | 67.8% | -1.76% | – | – | – | – | – | – | – | – | – | O=C(O)c1cc(F)c2nc(N3[C@@H]4CC[C@H]3C[C@@H](OCc3c(-c5ccccc5OC(F)(F)F)noc3C3CC3)C4)sc2c1 |
